Laboratory results taken from US20240418735A1, “Methods and Kits for Determining Insulin Resistance Treatment” (Scimar Ltd., priority 2021, published 2024).

How the values were obtained:
[1] = system: MIS (Meal-induced Insulin Sensitization); experiment: RIST index / % MIS before and 90 minutes after a mixed liquid meal in sucrose-supplemented rats; format: in vivo; details: for restoration of MIS on increasing the dose: increased doses of either NAC or BE, sucrose-supplemented rats
Description: While the present invention is not limited to a particular model or mechanism of action, it appears the response to feeding results in the release of acetylcholine which activates muscarinic receptors in the liver. This activation leads to increased production of nitric oxide which stimulates guanyl cyclase activity, resulting in increased levels of cyclic guanosine monophosphate which acts in stimulating the release of hepatalin from the liver. Meal-induced insulin […] (MIS) results from insulin-induced secretion of hepatalin which can only occur if the liver receives two permissive feeding signals. Absence of either signal blocks the ability of insulin to trigger hepatalin secretion. The combination of bethanechol and N-acetylcystelne (BENAC) mimics the 2 signals.
FIG. 1 is a chart showing BENAC synergistic treatment of AMIS. The % MIS (hepatalin/insulin action×100%) calculated from the RIST index in 24 hour fasted anaesthetized rats determined before and 90 minutes after intragastric injection of a mixed liquid meal in a normal control group and in four groups that had been treated with nine weeks of sucrose supplementation.

hepatalin secretion = details: one dose given before a test meal; rats on sucrose supplemented diet, 9 weeks; cited from earlier work
GSH = GSH levels in sucrose-supplemented rats; format: in vivo; details: nine weeks of sucrose supplementation

Row | Structure (SMILES) | restoration of MIS (% MIS calculated from the RIST index) ([1]; 24 hour fasted anaesthetized rats, nine weeks of sucrose supplementation, before and 90 minutes after intragastric mixed liquid meal) | restoration of MIS on increasing the dose [1] | ability of insulin to stimulate hepatalin secretion (hepatalin secretion) | effect on the RIST index ([1]; 24 hour fasted anaesthetized rats, nine weeks of sucrose supplementation) | GSH levels (GSH)
1 | CC(C[N+](C)(C)C)OC(N)=O (stereo not shown) [Bethanechol] | modest restoration of MIS | restored MIS to levels seen after feeding but not above | ineffective |  | 
2 | CC(=O)N[C@@H](CS)C(=O)O [N-acetyl cysteine] |  | restored MIS to levels seen after feeding but not above | ineffective | no effect | elevated GSH levels to that seen after feeding
